Assay results as given in article PMC5485613, “A novel TRPM8 agonist relieves dry eye discomfort” (BMC Ophthalmology, 2017).

Experiments:
[1] = biological target: T1, human TRPM8 (Homo sapiens, UniProt Q7Z2W7); assay: TRPM8 calcium assay (Fluo-8, FLIPR) in transfected CHO cells; type: cell-based; conditions: x Menthol
T1 construct: host or cells: CHO cells, stably transfected
Protocol: Compounds were tested on Chinese Hamster Ovary (CHO) cells stably transfected with human TRPM8 cDNAs using a Fluo-8 calcium kit and a Fluorescence Imaging Plate Reader ([…]™) instrument. […] Solutions were prepared by diluting stock solutions in a HEPES-buffered physiological saline (HBPS) solution. Test compound and control formulations were loaded in polypropylene or glass-lined 384-well plates, and placed into the FLIPR instrument (Molecular Devices Corporation, Union City, CA, USA). Each was tested at 8 concentrations with n = 4 replicates per determination. […] For […]™ assay, cells were plated in 384-well black wall, flat clear-bottom microtiter plates (Type: BD Biocoat Poly-D-Lysine Multiwell Cell Culture Plate) at approximately 30,000 cells per well. Cells were incubated at 37 °C overnight to reach a near confluent monolayer appropriate for use in a fluorescence assay. The test procedure was to remove the growth media and to add 40 μL of HBPS containing Fluo-8 for 30 min at 37 °C. 10 μL of test compound, vehicle, or control solutions in HBPS were added to each well and read for 4 min. Concentration-response data were analyzed via the FLIPR Control software that is supplied with the FLIPR System (MDS-AT) and fitted to a Hill equation.

[2] = tested on: cornea; design: method as in ref 62 = [62]; 62. Sung MS, Lee HS, Yang JM, Kim JG, Wei ET, Kim SJ, Yoon KC. paper presented at the 111th Annual Meeting of the Korean Ophthalmological Society, Busan, South Korea. 2014.; conditions: 2 mg/mL solution sprayed onto the closed eyelid; cited from earlier work
[3] = tested on: hNav1.7 (sodium channels); design: method as in ref 63 = [63]; 63. Wei ET. Design of Topical Sensory/cooling TRPM8 agonists for cough. Abstracts of the First International Cough Conference, Guangzhou, China, November 10–11, 2013.; conditions: 5 μM; cited from earlier work
[4] = design: method as in ref 28 = [28]; 28. Wei ET. Topical agents for the treatment of sensory discomfort in the nasal membranes. US20150265752 A1, Sept. 24, 2015.; conditions: cited from earlier work
[5] = tested on: eye; conditions: cited from earlier work
[6] = biological target: T2, mouse TRPV1 (Mus musculus, UniProt Q704Y3); assay: TRPV1 calcium imaging (Fura-2) in transfected KNRK cells; type: cell-based; conditions: 10 μM
T2 construct: expressed in transfected cells; host or cells: KNRK cells (rat kidney), transiently transfected
T2 sequence (Q704Y3 whole entry): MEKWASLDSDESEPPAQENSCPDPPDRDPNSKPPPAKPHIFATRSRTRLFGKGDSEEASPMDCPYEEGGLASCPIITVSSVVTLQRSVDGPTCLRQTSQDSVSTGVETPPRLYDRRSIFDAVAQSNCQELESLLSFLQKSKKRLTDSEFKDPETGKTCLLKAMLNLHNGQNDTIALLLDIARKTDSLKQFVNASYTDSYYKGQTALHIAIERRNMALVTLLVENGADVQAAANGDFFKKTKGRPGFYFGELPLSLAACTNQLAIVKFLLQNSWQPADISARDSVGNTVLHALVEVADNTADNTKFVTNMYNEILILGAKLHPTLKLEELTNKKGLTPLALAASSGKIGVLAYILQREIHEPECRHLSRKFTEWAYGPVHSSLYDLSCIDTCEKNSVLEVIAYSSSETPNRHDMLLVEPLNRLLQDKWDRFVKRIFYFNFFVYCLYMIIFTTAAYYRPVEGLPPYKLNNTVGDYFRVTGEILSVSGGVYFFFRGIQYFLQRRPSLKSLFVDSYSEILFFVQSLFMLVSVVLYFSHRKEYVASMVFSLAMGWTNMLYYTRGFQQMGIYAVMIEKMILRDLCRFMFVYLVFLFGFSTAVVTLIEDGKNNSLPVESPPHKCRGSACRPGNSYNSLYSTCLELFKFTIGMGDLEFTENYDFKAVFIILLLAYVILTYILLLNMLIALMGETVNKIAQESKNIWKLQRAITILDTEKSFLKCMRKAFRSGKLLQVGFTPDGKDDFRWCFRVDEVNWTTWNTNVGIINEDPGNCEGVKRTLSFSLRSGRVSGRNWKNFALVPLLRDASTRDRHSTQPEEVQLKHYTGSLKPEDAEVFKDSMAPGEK
Protocol: (§1) To further examine the specificity of C3, tests were conducted on TRPV1 channels and TRPA1 channels expressed in Kirsten murine sarcoma virus transformed rat kidney (KNRK) cells. KNRK cells were cultured as a monolayer and maintained in Dulbeccos’s Modified Eagles’s Medium (Life Technologies), supplemented with 10% fetal bovine serum (Life Technologies), 100 units/mL penicillin and 100 μg/mL streptomycin, in an incubator of 5% CO2 at 37 °C. After suspension, the cells were coated on cover slips for 12 h, then transiently transfected with cDNA (pc3.1 DNA) for TRPV1 or TRPA1 with Lipofectamine 2000 (Invitrogen) for 24 h, and loaded with Fura-2 AM™ (Molecular Probes) for 40 min at 37 °C. After washing and recovery, KNRK cells were imaged at 340 and 380 nm excitation to detect free calcium influx. An increase of 50% of the 340/380 ratio was considered as the response threshold which were measured under masked conditions for plasmids. Compounds were applied to the bath and calcium response was acquired by an inverted Nikon fluorescence microscope with a CoolSnap HQ2 CCD camera (Photometrics, Tucson, AZ). Data were quantified offline with the Nikon-NIS program.

[7] = tested on: TRPM8-sensory neurons; assay: Calcium imaging of primary sensory neurons from Trpm8 EGFP mice; type: cell-based, mouse; conditions: menthol 100 μM
Protocol: Calcium imaging was used to test the C3 selectivity on TRPM8-sensory neurons. Trpm8 ^+/EGFPmice were gifted by Dr. Yu-Qing Cao, Pain Center of Washington University in Saint Louis, School of Medicine, Missouri. Trigeminal ganglions and dorsal root ganglions from 4 to 5 weeks old mice were collected after CO2 euthanasia and digested for 30–40 min before plated on cover slips (8 mm), which were coated with poly-D-lysine for 40 min before use. Cover slips were gently washed with culture media to remove myelin after incubating for 35–40 min. Calcium imaging was done after incubation overnight at 37 °C, 5% CO2. Neurons were loaded with Fura-2 AM™ (Molecular Probes) for 30 min at room temperature. After washing and recovery, neurons were imaged at 340 and 380 nm excitation to detect free calcium influx. An increase of 50% of the 340/380 ratio was considered as the response threshold which were measured under blinded conditions for genotypes. Compounds were applied to the bath and calcium response was acquired by an inverted Nikon fluorescence microscope with a CoolSnap HQ2 CCD camera (Photometrics, Tucson, AZ). Data was quantified offline with the Nikon-NIS program.

[8] = biological target: T3, human TRPA1 (Homo sapiens, UniProt O75762); assay: TRPA1 calcium imaging (Fura-2) in transfected KNRK cells; type: cell-based; conditions: positive control, 100 μM
T3 construct: expressed in transfected cells; host or cells: KNRK cells (rat kidney), transiently transfected
T3 sequence (O75762 whole entry): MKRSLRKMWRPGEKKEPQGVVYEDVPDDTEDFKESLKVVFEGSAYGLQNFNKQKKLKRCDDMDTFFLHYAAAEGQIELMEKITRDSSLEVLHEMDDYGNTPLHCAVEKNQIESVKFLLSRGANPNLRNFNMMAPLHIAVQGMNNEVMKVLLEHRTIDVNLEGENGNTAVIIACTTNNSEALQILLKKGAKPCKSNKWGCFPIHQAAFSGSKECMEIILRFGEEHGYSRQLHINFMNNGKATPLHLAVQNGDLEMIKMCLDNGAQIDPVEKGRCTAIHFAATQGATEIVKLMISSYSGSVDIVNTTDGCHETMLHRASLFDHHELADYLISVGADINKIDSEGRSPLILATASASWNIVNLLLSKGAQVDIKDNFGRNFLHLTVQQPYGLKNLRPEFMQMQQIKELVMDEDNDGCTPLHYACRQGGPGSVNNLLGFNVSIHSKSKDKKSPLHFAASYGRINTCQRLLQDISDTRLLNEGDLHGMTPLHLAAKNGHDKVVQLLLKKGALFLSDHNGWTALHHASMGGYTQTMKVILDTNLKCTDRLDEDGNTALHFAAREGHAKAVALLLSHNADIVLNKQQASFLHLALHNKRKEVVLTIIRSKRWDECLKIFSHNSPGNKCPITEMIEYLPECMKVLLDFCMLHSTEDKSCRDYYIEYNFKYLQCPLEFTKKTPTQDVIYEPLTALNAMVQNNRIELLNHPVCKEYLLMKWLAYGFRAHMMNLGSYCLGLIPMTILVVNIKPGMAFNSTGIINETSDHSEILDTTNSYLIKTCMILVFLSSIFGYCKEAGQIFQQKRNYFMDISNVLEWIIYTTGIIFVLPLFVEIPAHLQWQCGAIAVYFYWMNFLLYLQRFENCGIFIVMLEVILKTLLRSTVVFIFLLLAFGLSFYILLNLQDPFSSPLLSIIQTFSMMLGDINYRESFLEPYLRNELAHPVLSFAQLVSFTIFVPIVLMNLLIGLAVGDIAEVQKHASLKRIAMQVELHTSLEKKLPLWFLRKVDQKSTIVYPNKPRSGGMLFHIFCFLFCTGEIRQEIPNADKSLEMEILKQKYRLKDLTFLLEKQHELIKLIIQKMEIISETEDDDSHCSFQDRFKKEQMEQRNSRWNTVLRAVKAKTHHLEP
Protocol: as §1

T1 sequence (Q7Z2W7 whole entry): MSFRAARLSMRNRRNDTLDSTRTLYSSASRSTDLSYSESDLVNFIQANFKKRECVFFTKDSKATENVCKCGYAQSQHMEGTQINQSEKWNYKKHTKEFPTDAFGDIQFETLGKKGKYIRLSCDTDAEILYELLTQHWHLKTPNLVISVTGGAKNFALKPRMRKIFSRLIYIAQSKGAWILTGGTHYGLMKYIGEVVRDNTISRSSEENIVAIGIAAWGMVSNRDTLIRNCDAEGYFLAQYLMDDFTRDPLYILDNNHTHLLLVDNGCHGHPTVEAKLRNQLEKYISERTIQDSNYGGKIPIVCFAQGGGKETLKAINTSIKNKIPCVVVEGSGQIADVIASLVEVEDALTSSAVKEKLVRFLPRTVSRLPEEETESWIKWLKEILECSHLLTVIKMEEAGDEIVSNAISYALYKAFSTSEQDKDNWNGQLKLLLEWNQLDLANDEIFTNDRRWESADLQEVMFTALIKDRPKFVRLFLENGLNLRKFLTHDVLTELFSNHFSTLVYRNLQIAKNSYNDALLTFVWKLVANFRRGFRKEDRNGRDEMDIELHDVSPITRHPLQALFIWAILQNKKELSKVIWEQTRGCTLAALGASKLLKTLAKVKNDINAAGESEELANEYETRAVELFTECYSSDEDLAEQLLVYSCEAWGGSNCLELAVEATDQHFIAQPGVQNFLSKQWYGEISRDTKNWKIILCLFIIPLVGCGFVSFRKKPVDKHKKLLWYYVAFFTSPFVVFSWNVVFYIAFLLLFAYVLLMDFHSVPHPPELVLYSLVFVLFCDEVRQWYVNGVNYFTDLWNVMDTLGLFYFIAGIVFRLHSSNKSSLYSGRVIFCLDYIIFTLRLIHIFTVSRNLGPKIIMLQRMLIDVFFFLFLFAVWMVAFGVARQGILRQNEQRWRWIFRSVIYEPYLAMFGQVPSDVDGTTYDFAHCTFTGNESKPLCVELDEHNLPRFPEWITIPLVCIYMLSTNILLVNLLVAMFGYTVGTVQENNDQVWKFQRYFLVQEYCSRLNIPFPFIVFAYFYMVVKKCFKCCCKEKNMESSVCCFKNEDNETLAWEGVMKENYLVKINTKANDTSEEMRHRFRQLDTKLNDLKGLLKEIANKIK

Compound	relative potency to l-menthol (menthol = 1) [1]	also measured
CCC(C)P(=O)(CCC(C)C)C(C)CC (stereo not shown) [1-di-sec-butylphosphoryl-3-methyl-butane]	0.9	
CCCCP(=O)(C(C)CC)C(C)CC (stereo not shown) [1-di-sec-butylphosphoryl-4]	0.3	
CCCCCCCP(=O)(C(C)CC)C(C)CC (stereo not shown) [1-di-sec-butylphosphoryl-heptane]	3.4	
CCCCCCP(=O)(C(C)CC)C(C)CC (stereo not shown) [1-di-sec-butylphosphoryl-hexane]	4.7	
CCCCCCCCP(=O)(C(C)CC)C(C)CC (stereo not shown) [1-di-sec-butylphosphoryl-octane]	2.9	
CCCCCP(=O)(C(C)CC)C(C)CC (stereo not shown) [1-di-sec-butylphosphoryl-pentane]	2.2	corneal sensitivity [2]: not affected; lidocaine-like activity on hNav1.7 [3]: did not have lidocaine-like activity
CCCCCP(=O)(CC(C)C)CC(C)C [1-diisobutylphosphoryl-pentane]	0.2	
CCCCCCCP(=O)(C(C)C)C(C)C [1-diisopropylphosphoryl-heptane]	5.4	
CCCCCCP(=O)(C(C)C)C(C)C [1-diisopropylphosphoryl-hexane]	1.6	
CCCCCCCCP(=O)(C(C)C)C(C)C [1-diisopropylphosphoryl-octane]	5.4	
CCCCCP(=O)(C(C)C)C(C)C [1-diisopropylphosphoryl-pentane]	0.7	
O=C1NC(c2cccc([N+](=O)[O-])c2)=CCN1c1ccccc1O [Icilin, icilin]		solubility in ophthalmic vehicles [4]: not soluble; sensation on the eyelids ([5]; anecdotal): punctate and long-lasting cooling
COc1cc(CNC(=O)CCCC/C=C/C(C)C)ccc1O [capsaicin, reference compound]		activation of TRPV1 (calcium response) [6]: active
CC(C)[C@@H]1CC[C@@H](C)C[C@H]1O [l-menthol, reference compound]		eye sensation after menthol solutions [5]: stinging followed by a brief episode of cooling; calcium response of Trpm8 EGFPf/+ neurons [7]: sensitive
C=CCN=C=S [mustard oil, reference compound]		activation of TRPA1 (calcium response) [8]: active
